ChEMBL document CHEMBL3739395, “Discovery and optimisation of 1-acyl-2-benzylpyrrolidines as potent dual orexin receptor antagonists” (Medchemcomm, 2015)
Converted amounts (≈) assume the structure as drawn. The source made the active and inactive calls. The rule behind the calls is not given here.

How the values were obtained:
[1] = Intrinsic clearance in rat liver microsomes at 1 uM; type: ADME; details: read-out: CLH
[2] = Lipophilicity, log D of the compound; type: physicochemical; details: octanol/water
Orexin receptor type 2 = biological target: T1, Orexin receptor type 2 (Homo sapiens, UniProt O43614); assay: Inhibition of human orexin-2 receptor expressed in CHO cells assessed as calcium release preincubated for 120 mins followed by addition of orexin-A by fluo-4 AM based-FLIPR analysis; type: functional, cell-based
T1 sequence (O43614 whole entry): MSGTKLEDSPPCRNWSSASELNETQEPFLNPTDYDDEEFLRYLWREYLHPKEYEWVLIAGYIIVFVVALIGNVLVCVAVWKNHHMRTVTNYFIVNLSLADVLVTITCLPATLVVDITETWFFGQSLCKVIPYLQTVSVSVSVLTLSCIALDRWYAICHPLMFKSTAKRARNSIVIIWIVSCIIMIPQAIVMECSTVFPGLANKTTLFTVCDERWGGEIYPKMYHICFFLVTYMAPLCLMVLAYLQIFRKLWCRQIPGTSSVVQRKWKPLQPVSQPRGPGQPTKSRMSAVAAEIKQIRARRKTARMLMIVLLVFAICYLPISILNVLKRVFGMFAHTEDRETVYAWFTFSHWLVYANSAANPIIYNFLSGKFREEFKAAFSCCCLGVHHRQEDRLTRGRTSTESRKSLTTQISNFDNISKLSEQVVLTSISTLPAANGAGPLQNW

[3] = biological target: T2, Orexin/Hypocretin receptor type 1 (Homo sapiens, UniProt O43613); assay: Inhibition of human orexin-1 receptor expressed in CHO cells assessed as calcium release preincubated for 120 mins followed by addition of orexin-A by fluo-4 AM based-FLIPR analysis; type: functional, cell-based
T2 sequence (O43613 whole entry): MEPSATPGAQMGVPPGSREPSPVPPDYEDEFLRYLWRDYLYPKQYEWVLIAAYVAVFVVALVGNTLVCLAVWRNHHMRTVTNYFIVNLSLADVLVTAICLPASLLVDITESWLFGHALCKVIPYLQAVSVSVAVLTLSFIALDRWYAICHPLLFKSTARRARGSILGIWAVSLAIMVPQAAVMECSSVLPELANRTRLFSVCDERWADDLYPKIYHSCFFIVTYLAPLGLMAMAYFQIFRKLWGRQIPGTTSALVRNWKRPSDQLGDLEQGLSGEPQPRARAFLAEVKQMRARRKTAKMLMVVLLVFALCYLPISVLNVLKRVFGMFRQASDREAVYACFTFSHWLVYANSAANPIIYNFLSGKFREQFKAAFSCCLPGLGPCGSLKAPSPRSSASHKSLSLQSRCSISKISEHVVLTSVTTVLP

[4] = Intrinsic clearance in human liver microsomes at 1 uM; type: ADME; details: read-out: CLH
[5] = Solubility of compound in unbuffered water at pH 4.1; type: physicochemical
[6] = Clearance in rat; type: ADME, organism-based; details: in vivo
[7] = Oral bioavailability in rat; type: ADME, organism-based; details: in vivo
Rattus norvegicus [8] = assay: Sleep promoting effect in Wistar rat sleep model at 100 mg/kg, po administered as single dose during first 6 hrs of night active period post dose relative to vehicle control; type: functional, organism-based
Rattus norvegicus [9] = assay: Increase in time spent in rapid eye movement sleep in Wistar rat sleep model at 100 mg/kg, po administered as single dose during first 6 hrs of night active period post dose relative to vehicle control; type: functional
Rattus norvegicus [10] = assay: Reduction in home cage activity in Wistar rat sleep model at 100 mg/kg, po administered as single dose during first 6 hrs of night active period post dose relative to vehicle control; type: functional; set-up: scale not given: the % may be the effect or the level left
Rattus norvegicus [11] = assay: Increase in time spent in non-rapid eye movement sleep in Wistar rat sleep model at 100 mg/kg, po administered as single dose during first 6 hrs of night active period post dose relative to vehicle control; type: functional
Rattus norvegicus [12] = assay: Reduction in time spent in active wake state in Wistar rat sleep model at 100 mg/kg, po administered as single dose during first 6 hrs of night active period post dose relative to vehicle control; type: functional; set-up: scale not given: the % may be the effect or the level left
Rattus norvegicus [13] = assay: Increase in time spent in quiet wake state in Wistar rat sleep model at 100 mg/kg, po administered as single dose during first 6 hrs of night active period post dose relative to vehicle control; type: functional
[14] = Plasma concentration in Wistar rat at 100 mg/kg, po measured 3 hrs post dose; type: ADME, organism-based
[15] = Drug uptake in Wistar rat cerebrospinal fluid at 100 mg/kg, po measured 3 hrs post dose; type: ADME, organism-based; details: read-out: Drug uptake
[16] = Ratio of drug level in brain to plasma in Wistar rat at 100 mg/kg, po measured 3 hrs post dose; type: ADME, organism-based; details: brain and plasma, read-out: BPR
[17] = Drug uptake in Wistar rat brain at 100 mg/kg, po measured 3 hrs post dose; type: ADME, organism-based; details: read-out: Drug uptake
Cytochrome P450 3A4 = Cytochrome P450 3A4 (Homo sapiens, UniProt P08684); assay: Inhibition of CYP3A4 (unknown origin) assessed as testosterone-6beta hydroxylation; type: ADME
Sequence of Cytochrome P450 3A4 (P08684 whole entry): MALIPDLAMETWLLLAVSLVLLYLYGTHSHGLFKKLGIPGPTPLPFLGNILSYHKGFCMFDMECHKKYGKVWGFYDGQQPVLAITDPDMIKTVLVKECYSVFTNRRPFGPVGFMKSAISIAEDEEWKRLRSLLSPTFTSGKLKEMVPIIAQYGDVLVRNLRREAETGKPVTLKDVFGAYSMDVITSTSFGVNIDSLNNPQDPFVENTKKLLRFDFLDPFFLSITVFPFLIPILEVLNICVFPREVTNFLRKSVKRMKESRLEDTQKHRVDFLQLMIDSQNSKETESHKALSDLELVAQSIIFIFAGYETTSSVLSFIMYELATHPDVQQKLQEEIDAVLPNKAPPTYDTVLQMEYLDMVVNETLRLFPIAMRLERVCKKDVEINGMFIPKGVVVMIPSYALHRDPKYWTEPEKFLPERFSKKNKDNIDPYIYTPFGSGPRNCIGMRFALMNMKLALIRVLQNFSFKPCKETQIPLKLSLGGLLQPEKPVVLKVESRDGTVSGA

Structure (SMILES)	IC50 (Orexin receptor type 2) [nM]	IC50 [3] [nM]	microsomal CLint at 1 µM [4] [µL/min/mg]	other results
COc1ccc(C[C@@H]2CCCN2C(=O)c2cc(C)ccc2-n2nccn2)cc1OC	8.4	8.5	356	microsomal CLint at 1 µM [1]: > 1250 µL/min/mg; logD [2]: 3; solubility [5]: 160 µg/mL (≈ 394 µM); clearance [6]: 55 mL/min/kg; bioavailability [7]: < 10%
COc1ccc(Cl)c(C[C@@H]2CCCN2C(=O)c2nc(C)sc2-c2cccc(C)c2)c1	18	33	996	microsomal CLint at 1 µM [1]: > 1250 µL/min/mg
COc1ccc(CC2CCCCN2C(=O)c2cc(C)ccc2-n2nccn2)cc1OC (racemic)	3.3	2.7	616	–
CNC(=O)[C@@H](c1ccccc1)N1CCc2cc(OC)c(OC)cc2[C@@H]1CCc1ccc(C(F)(F)F)cc1 [ALMOREXANT]	–	–	–	Activity (Rattus norvegicus [8]): Active; Activity (Rattus norvegicus [9]): 50%; Activity (Rattus norvegicus [10]): -42%; Activity (Rattus norvegicus [11]): 22%; Activity (Rattus norvegicus [12]): -20%; Activity (Rattus norvegicus [13]): -8%
COc1ccc(C[C@@H]2CCCN2C(=O)c2nc(C)sc2-c2cccc(C)c2)cc1OC	3.1	3.5	338	microsomal CLint at 1 µM [1]: > 1250 µL/min/mg; concentration at 3 h [14]: 129 ng/mL; concentration at 3 h [15]: 6 ng/mL; Kp at 3 h [16]: 0.97; concentration at 3 h [17]: 125 ng/mL
COc1ccc(C[C@@H]2CCCN2C(=O)c2nccnc2-c2cccc(C)c2)cc1OC	4	23	158	concentration at 3 h [14]: 225 ng/mL; concentration at 3 h [15]: 22 ng/mL; Kp at 3 h [16]: 0.4; concentration at 3 h [17]: 89 ng/mL
COc1ccc(C[C@@H]2CCCN2C(=O)c2ccccc2-c2ncccn2)cc1OC	4.7	16	102	concentration at 3 h [14]: 737 ng/mL; concentration at 3 h [15]: 113 ng/mL; Kp at 3 h [16]: 0.18; concentration at 3 h [17]: 134 ng/mL
COc1ccc(CC2c3sccc3CCN2C(=O)c2cc(C)ccc2-n2nccn2)cc1OC (racemic)	428	131	–	–
COc1ccc(-c2sc(C)nc2C(=O)N2CCC[C@H]2Cc2ccc(OC)c(OC)c2)cc1	10	17	210	–
COc1cccc(CCC2CCCCN2C(=O)c2cc(C)ccc2-n2nccn2)c1 (racemic)	243	108	1170	–
COc1ccc(C[C@@H]2CCCN2C(=O)c2nc(C)sc2-c2cccc(C)c2)cc1Cl	1.8	3.8	> 1250	microsomal CLint at 1 µM [1]: > 1250 µL/min/mg
COc1ccc(C[C@@H]2CCCN2C(=O)c2nc(C)sc2-c2cccc(Cl)c2)cc1OC	6.3	9.1	612	–
COc1cccc(-c2sc(C)nc2C(=O)N2CCC[C@H]2Cc2ccc(OC)c(OC)c2)c1	7.8	11	300	–
Cc1cccc(-c2sc(C)nc2C(=O)N2CCC[C@H]2Cc2ccc(C)c(Cl)c2)c1	10	13	> 1250	microsomal CLint at 1 µM [1]: > 1250 µL/min/mg
COc1cc(C[C@@H]2CCCN2C(=O)c2nc(C)sc2-c2cccc(C)c2)cc(OC)c1	4.3	3.4	798	–
COc1ccc(C[C@@H]2CCCN2C(=O)c2cc(C)ccc2-n2cccn2)cc1OC	65	45	> 1250	–
Cc1cccc(-c2sc(C)nc2C(=O)N2CCC[C@H]2Cc2ccc3c(c2)OCO3)c1	40	64	124	–
CCn1cc(C(=O)N2CCCCC2Cc2ccc(OC)c(OC)c2)c2ccccc21 (racemic)	102	28	–	–
COc1ccc(C[C@@H]2CCCN2C(=O)c2nc(C)sc2-c2ccc3c(c2)CCO3)cc1OC	8	8.3	235	–
Cc1ccc(-n2nccn2)c(C(=O)N2CCN(c3nc4cc(Cl)ccc4o3)CC[C@H]2C)c1 [SUVOREXANT]	–	–	–	Activity (Rattus norvegicus [8]): Active; Activity (Rattus norvegicus [9]): 20%; Activity (Rattus norvegicus [10]): -31%; Activity (Rattus norvegicus [11]): 19%; Activity (Rattus norvegicus [12]): -16%; Activity (Rattus norvegicus [13]): 9%
COc1ccc(C[C@@H]2CCCN2C(=O)c2nc(C)ccc2-c2ncccn2)cc1OC	71	60	17	–
Cc1cccc(-c2sc(C)nc2C(=O)N2CCC[C@H]2Cc2ccc3c(c2)OCCO3)c1	39	35	1040	–
Cc1cccc(-c2sc(C)nc2C(=O)N2CCC[C@H]2Cc2ccc(Cl)c(Cl)c2)c1	66	22	> 1250	–
COc1cccc(C[C@@H]2CCCN2C(=O)c2nc(C)sc2-c2cccc(C)c2)c1Cl	16	26	> 1250	microsomal CLint at 1 µM [1]: > 1250 µL/min/mg
COc1ccc(C[C@@H]2CCCN2C(=O)c2ccccc2-n2nccn2)cc1OC	3.5	16	104	microsomal CLint at 1 µM [1]: > 1250 µL/min/mg; concentration at 3 h [14]: 114 ng/mL; concentration at 3 h [15]: 12 ng/mL; Kp at 3 h [16]: 0.39; concentration at 3 h [17]: 45 ng/mL
CCn1cc(C(=O)N2CCc3ccsc3C2Cc2ccc(OC)c(OC)c2)c2ccccc21 (racemic)	1.4	5.4	> 1250	microsomal CLint at 1 µM [1]: > 1250 µL/min/mg; IC50 (Cytochrome P450 3A4): 3000 nM; solubility [5]: 7 µg/mL (≈ 15.2 µM)
COc1ccc(C[C@@H]2CCCN2C(=O)c2ccccc2-c2nc(C)no2)cc1OC	12	33	129	–
COc1ccc(CCC2CCCCN2C(=O)c2cc(C)ccc2-n2nccn2)cc1OC (racemic)	16	28	817	–
COc1ccc(C[C@@H]2CCCN2C(=O)c2nc(C)sc2-c2ccc(F)cc2)cc1OC	62	111	216	–
